Reference: patent US20240174723A1, “STAPLED ANTIMICROBIAL PEPTIDES (STAMPS) AND USES THEREOF” (Lytica Therapeutics, Inc., priority 2021, published 2024)
≈ marks a conversion by molar mass, not a printed value. Where two headings read alike, the source gives them in different places. Positions of bridges follow the written chain, without caps; N, C: chain ends. Non-standard residues stand in square brackets, D forms with d. Residues, ends and D or L forms follow the SMILES beside them. S5 = C=CCCC[C@](C)(N)C(=O)O

How the values were obtained:
E. coli = assay type: cell-based, Escherichia coli
Outline: (§1)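 StAMP peptides were tested by CLSI-adapted broth microdilution in MHB or cation-adjusted MHB II, final inoculum 5×10^5 CFU/ml from log-phase cultures. After 20-24 h at 37° C, MIC was taken as the lowest peptide concentration without visible growth.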

A. baumannii = assay type: cell-based, Acinetobacter baumannii
Outline: as §1

P. aeruginosa = assay type: cell-based, Pseudomonas aeruginosa
Outline: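 Broth microdilution adapted from CLSI in MHB or cation-adjusted MHB; log-phase P. aeruginosa at 5×10^5 CFU/ml final with serially diluted stapled peptides. Incubated 20-24 h at 37 °C; MIC is the lowest concentration without visible growth.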

K. pneumoniae = assay type: cell-based, Klebsiella pneumoniae
Outline: as §1

S. aureus = assay type: cell-based, Staphylococcus aureus
Outline: as §1

in vitro [1] = assay type: cell-based; settings: human
Outline: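 RPTEC or HepG2 cells plated overnight, given fresh media, then serial StAMP dilutions (from 5 mg/mL water stock) or vehicle at 37 °C. Cytotoxicity read as LDH release into media, absorbance 490 nm; renal toxicity after 90 min, liver toxicity after 48 h incubation.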

in vitro [2] = assay type: cell-based; settings: human; remark: listed apart in the source
Outline: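 HepG2 cells in EMEM with 10% FBS, allowed 4 h to attach, then exposed to serial dilutions of StAMPs (from a 5 mg/mL water stock) or vehicle. After 48 h at 37 °C, viability read by CellTiter-Glo luminescence.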

[3] = Inhibitory Concentration at 50% Cytotoxicity (IC50) Human Liver Cells (HepG2)

Minimum Inhibitory Concentration (MIC) E. coli (E. coli) [µg/mL]	Minimum Inhibitory Concentration (MIC) A. baumannii (A. baumannii) [µg/mL]	Minimum Inhibitory Concentration (MIC) P. aeruginosa (P. aeruginosa) [µg/mL]	Minimum Inhibitory Concentration (MIC) K. pneumoniae (K. pneumoniae) [µg/mL]	Minimum Inhibitory Concentration (MIC) S. aureus (S. aureus) [µg/mL]	IC50 at 90 min (in vitro [1]) [µg/mL]	SMILES	IC50 at 48 hours (in vitro [2]; [3]) [µg/mL]	IC50 at 90 min (in vitro [1]; 90 minutes of incubation, read-out: Inhibitory Concentration at 50% Cytotoxicity (IC50) Human Renal Proximal Tubule Epithelial Cells (RPTEC)) [µg/mL]	IC50 at 48 hours (in vitro [2]; 48 hours of incubation, read-out: Inhibitory Concentration at 50% Cytotoxicity (IC50) Human Liver Cells (HepG2)) [µg/mL]
3	2	4	32	>64	~180 (≈ 71.1 µM)	CC(C)[C@@H]1NC(=O)[C@@](C)(NC(=O)[C@H](C)NC(=O)[C@H](CCCCN)NC(=O)CNC(=O)[C@H](Cc2ccccc2)NC(=O)[C@H](CCCCN)NC(=O)[C@H](CCCCN)NC(=O)[C@H](CCCCN)NC(=O)[C@H](CO)NC(=O)[C@H](Cc2c[nH]cn2)NC(=O)[C@]2(C)CCCC=CCCC[C@](C)(NC(=O)CN)C(=O)NCC(=O)N[C@@H](CCCCN)C(=O)N[C@@H](Cc3ccccc3)C(=O)N2)CCCC=CCCC[C@@](C)(C(=O)N[C@@H](C)C(=O)N[C@@H](CCCCN)C(=O)N[C@@H](CCCCN)C(N)=O)NC(=O)[C@H](CCC(N)=O)NC(=O)CNC1=O [compound 17] (H-G[S5]GKF[S5]HSKKKFGKA[S5]VGQ[S5]AKK-NH2; staple 2-6, 16-20)	> 200	–	–
3	2	4	8	>64	> 200	CC(C)[C@@H]1NC(=O)[C@@](C)(NC(=O)[C@H](C)NC(=O)[C@H](CCCCN)NC(=O)CNC(=O)[C@H](Cc2ccccc2)NC(=O)[C@H](CCCCN)NC(=O)[C@H](CCCCN)NC(=O)[C@H](CCCCN)NC(=O)[C@H](CO)NC(=O)[C@H](Cc2c[nH]cn2)NC(=O)[C@]2(C)CCCC=CCCC[C@](C)(NC(=O)CN)C(=O)NCC(=O)N[C@@H](CCCCN)C(=O)N[C@@H](Cc3ccccc3)C(=O)N2)CCCC=CCCC[C@@](C)(C(=O)N[C@@H](C)C(=O)N[C@@H](CCCCN)C(=O)N[C@@H](CCCCN)C(N)=O)NC(=O)[C@H](CCC(=O)O)NC(=O)[C@H](Cc2ccc(O)cc2)NC1=O [compound 13] (H-G[S5]GKF[S5]HSKKKFGKA[S5]VYE[S5]AKK-NH2; staple 2-6, 16-20)	> 200	–	–
4	2	4	64	>64	~200 (≈ 79.5 µM)	CC(C)[C@@H]1NC(=O)[C@@](C)(NC(=O)[C@H](C)NC(=O)[C@H](CCCCN)NC(=O)CNC(=O)[C@H](Cc2ccccc2)NC(=O)[C@H](CCCCN)NC(=O)[C@H](CCCCN)NC(=O)[C@H](CCCCN)NC(=O)[C@H](CO)NC(=O)[C@H](Cc2c[nH]cn2)NC(=O)[C@]2(C)CCCC=CCCC[C@](C)(NC(=O)CN)C(=O)NCC(=O)N[C@@H](CCCCN)C(=O)N[C@@H](Cc3ccccc3)C(=O)N2)CCCC=CCCC[C@@](C)(C(=O)N[C@@H](C)C(=O)N[C@@H](CCCCN)C(=O)N[C@@H](CCCCN)C(N)=O)NC(=O)[C@H](CC(N)=O)NC(=O)CNC1=O [compound 18] (H-G[S5]GKF[S5]HSKKKFGKA[S5]VGN[S5]AKK-NH2; staple 2-6, 16-20)	> 200	–	–
4	2	4	4	32	110 (≈ 41.3 µM)	CC(C)[C@@H]1NC(=O)[C@@](C)(NC(=O)[C@H](C)NC(=O)[C@H](CCCCN)NC(=O)CNC(=O)[C@H](Cc2ccccc2)NC(=O)[C@H](CCCCN)NC(=O)[C@H](CCCCN)NC(=O)[C@H](CCCCN)NC(=O)[C@H](CO)NC(=O)[C@H](Cc2c[nH]cn2)NC(=O)[C@]2(C)CCCC=CCCC[C@](C)(NC(=O)CN)C(=O)NCC(=O)N[C@@H](CCCCN)C(=O)N[C@@H](Cc3ccccc3)C(=O)N2)CCCC=CCCC[C@@](C)(C(=O)N[C@@H](C)C(=O)N[C@@H](CCCCN)C(=O)N[C@@H](CCCCN)C(N)=O)NC(=O)[C@H](CCC(=O)O)NC(=O)[C@H](Cc2c[nH]c3ccccc23)NC1=O (single isomer, unassigned) [compound 10]	150 (≈ 56.4 µM)	–	–
2	2	4	4	>64	251 (≈ 96 µM)	CC(C)[C@@H]1NC(=O)[C@H](C(C)C)NC(=O)[C@@](C)(NC(=O)[C@H](C)NC(=O)[C@H](CCCCN)NC(=O)CNC(=O)[C@H](Cc2ccccc2)NC(=O)[C@H](CCCCN)NC(=O)[C@H](CCCCN)NC(=O)[C@H](CCCCN)NC(=O)[C@H](CCCCN)NC(=O)[C@H](Cc2c[nH]cn2)NC(=O)[C@]2(C)CCCC=CCCC[C@](C)(NC(=O)CN)C(=O)NCC(=O)N[C@@H](CCCCN)C(=O)N[C@@H](Cc3ccccc3)C(=O)N2)CCCC=CCCC[C@@](C)(C(=O)N[C@@H](C)C(=O)N[C@@H](CCCCN)C(=O)N[C@@H](CCCCN)C(N)=O)NC(=O)[C@H](CCC(=O)O)NC1=O [compound 21] (H-G[S5]GKF[S5]HKKKKFGKA[S5]VVE[S5]AKK-NH2; staple 2-6, 16-20)	208 (≈ 79.5 µM)	–	–
4	4	4	32	>64	366 (≈ 130 µM)	CC(C)[C@@H]1NC(=O)[C@@](C)(NC(=O)[C@H](C)NC(=O)[C@H](CCCCN)NC(=O)CNC(=O)[C@H](Cc2ccccc2)NC(=O)[C@H](CCCCN)NC(=O)[C@H](CCCCN)NC(=O)[C@H](CCCCN)NC(=O)[C@H](CCCCN)NC(=O)[C@H](CCCCN)NC(=O)[C@]2(C)CCCC=CCCC[C@](C)(NC(=O)CN)C(=O)NCC(=O)N[C@@H](CCCCN)C(=O)N[C@@H](Cc3ccccc3)C(=O)N2)CCCC=CCCC[C@@](C)(C(=O)N[C@@H](C)C(=O)N[C@@H](CCCCN)C(=O)N[C@@H](CCCCN)C(=O)NCC(=O)NCC(=O)N[C@@H](CCC(=O)O)C(N)=O)NC(=O)[C@H](CCC(=O)O)NC(=O)CNC1=O [compound 26] (H-G[S5]GKF[S5]KKKKKFGKA[S5]VGE[S5]AKKGGE-NH2; staple 2-6, 16-20)	354 (≈ 126 µM)	–	–

SMILES	Minimum Inhibitory Concentration (MIC) E. coli (E. coli) [µg/mL]	Minimum Inhibitory Concentration (MIC) A. baumannii (A. baumannii) [µg/mL]	Minimum Inhibitory Concentration (MIC) P. aeruginosa (P. aeruginosa) [µg/mL]	Minimum Inhibitory Concentration (MIC) K. pneumoniae (K. pneumoniae) [µg/mL]	Minimum Inhibitory Concentration (MIC) S. aureus (S. aureus) [µg/mL]	IC50 at 90 min (in vitro [1]) [µg/mL]	IC50 at 48 hours (in vitro [2]; [3]) [µg/mL]	IC50 at 90 min (in vitro [1]; 90 minutes of incubation, read-out: Inhibitory Concentration at 50% Cytotoxicity (IC50) Human Renal Proximal Tubule Epithelial Cells (RPTEC)) [µg/mL]	IC50 at 48 hours (in vitro [2]; 48 hours of incubation, read-out: Inhibitory Concentration at 50% Cytotoxicity (IC50) Human Liver Cells (HepG2)) [µg/mL]
CC(C)[C@@H]1NC(=O)[C@@](C)(NC(=O)[C@H](C)NC(=O)[C@H](CCCCN)NC(=O)CNC(=O)[C@H](Cc2ccccc2)NC(=O)[C@H](CCCCN)NC(=O)[C@H](CCCCN)NC(=O)[C@H](CCCCN)NC(=O)[C@H](CCCCN)NC(=O)[C@H](CCCCN)NC(=O)[C@]2(C)CCCC=CCCC[C@](C)(NC(=O)CN)C(=O)NCC(=O)N[C@@H](CCCCN)C(=O)N[C@@H](Cc3ccccc3)C(=O)N2)CCCC=CCCC[C@@](C)(C(=O)N[C@@H](C)C(=O)N[C@@H](CCCCN)C(=O)N[C@@H](CCCCN)C(=O)NCC(=O)NCC(=O)N[C@@H](CCC(=O)O)C(N)=O)NC(=O)[C@H](CCC(=O)O)NC(=O)[C@@H](Cc2ccccc2)NC1=O [compound 34] (H-G[S5]GKF[S5]KKKKKFGKA[S5]V[dF]E[S5]AKKGGE-NH2; staple 2-6, 16-20)	2	2	4	2	>64	–	–	96 (≈ 33.1 µM)	109 (≈ 37.6 µM)
